Results reported in patent publication US8431614B2, “Loxoprofen derivative and pharmaceutical preparation containing the same” (LTT Bio-Pharma Co., Ltd., priority 2009, dated 2013).

Target: T1, COX-2 (Homo sapiens, UniProt P35354)
T1 construct: from tissue; host or cells: heparinised human whole blood from a healthy donor, stimulated with LPS
T1 sequence (P35354 18-604): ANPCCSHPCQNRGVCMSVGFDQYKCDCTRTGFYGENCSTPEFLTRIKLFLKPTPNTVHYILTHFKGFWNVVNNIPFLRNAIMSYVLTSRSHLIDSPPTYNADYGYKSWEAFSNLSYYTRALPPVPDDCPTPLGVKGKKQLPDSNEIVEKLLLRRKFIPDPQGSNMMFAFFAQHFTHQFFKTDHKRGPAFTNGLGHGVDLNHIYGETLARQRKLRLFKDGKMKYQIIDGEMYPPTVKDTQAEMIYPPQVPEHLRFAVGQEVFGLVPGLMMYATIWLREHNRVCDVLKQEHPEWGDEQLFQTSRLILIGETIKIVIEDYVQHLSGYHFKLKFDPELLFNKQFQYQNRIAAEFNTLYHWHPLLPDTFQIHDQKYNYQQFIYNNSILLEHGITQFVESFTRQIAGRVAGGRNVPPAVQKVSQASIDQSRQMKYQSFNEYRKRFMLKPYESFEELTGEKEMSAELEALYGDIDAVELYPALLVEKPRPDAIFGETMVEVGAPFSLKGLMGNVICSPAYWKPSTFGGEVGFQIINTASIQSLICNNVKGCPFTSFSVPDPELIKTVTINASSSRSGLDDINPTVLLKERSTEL
Assay: Human whole blood assay, in vitro COX-2 assay (LPS-induced PGE2 by EIA)
Format: cell-based
Details: ratio of IC50 COX-1 to IC50 COX-2
Procedure: This test was performed according to the method described in Inflamm. Res., 45: 68-74 (1996).
A person who had not taken NSAIDs for at least one week and was healthy on the day of blood collection was selected as a subject for blood collection.
Blood was collected in heparin-treated test tubes (Venojectll blood collection tubes, Terumo Corporation), and an inflammatory stimulant, lipopolysaccharide (LPS) (Sigma-Aldrich Japan Inc., #L2880 from E. coli055:B5: diluted in phosphate buffered saline (PBS) to a final concentration of 100 μg/mL) was added to the blood. The mixture was dispensed in 500 μL aliquots into tubes. 2 μL of the test compound (final concentration: 0.1 μM to 1000 μM) dissolved in an appropriate solvent (DMSO or MilliQ water) was added and incubated at 37° C. for 24 hours to induce COX-2.
After incubation, the samples were centrifuged at 12,000×g for 5 minutes to separate serum. 100 μL of the obtained serum was added to 400 μL of ethanol to remove blood protein, and the mixture was centrifuged again at 12,000×g for 5 minutes. PGE2 in the supernatant was quantified by using an enzyme immunoassay (EIA) kit [Cayman (Ann, Arbor, Mich., USA) #514040]. The protocol followed the protocol attached to the kit.

SMILES: CC(C(=O)O)c1ccc(CC2CCCC2=O)cc1 (stereo not shown) [LOXONIN, loxoprofen]
- COX-2 S[…]. 1/COX. 2: 4.0
